Measurements: patent US8697839B2, “GQ protein competitive inhibitory polypeptides, preparation methods and uses thereof” (Third Military Medical University, priority 2008, dated 2014)

Key:
[1] = test system: myocardial hypertrophy in mice induced by norepinephrine; test: myocardial hypertrophy in mice induced by norepinephrine; format: in vivo; conditions: NE model group: equivalent to 1.5 mg/kg NE ip bid 15 days, alone; x ± s
Protocol: Fifty of the mice used in the experiment (purchased from Center for Experimental Animals, Third Military Medical University) was assigned into five groups with 10 mice per group. The mice in the control group were administrated with 0.1% ascorbic acid-3 mg % potassium sodium tartrate-physiological saline, The mice in the model group were administrated with 0.1% ascorbic acid-6 mg % norepinephrine bitartrate-physiological saline (equivalent to 1.5 mg/kg NE); The mice in three dosing groups were administrated with the pentadecapeptide, the heptacosapeptide, and the pantapentacontapeptide at 30 μg/kg respectively, while administration of 0.1% ascorbic acid—6 mg % norepinephrine bitartrate—physiological saline. The administration was performed consecutively by intraperitoneal injection (ip), twice a day (bid), for 15 days. The dosing volumes for each group were 50 ml/kg. Then, the animals were sacrificed by cervical dislocation. The heart was removed by thoracotomy, washed with the chilled physiological saline to get rid of blood stain, blotted with filter paper, weighed on a scale. The atriums and the right ventricle were carefully removed (with the interventricular septum left), and the left ventricle was weighed.

[2] = test system: myocardial hypertrophy in rats induced by norepinephrine; test: myocardial hypertrophy in rats induced by norepinephrine; format: in vivo, Wistar rats; conditions: NE model group: 6 mg % norepinephrine bitartrate, 33 ml/kg ip bid 20 days, alone; n = 6, x ± s
Protocol: Thirty of Wistar rats were selected and assigned into five groups with 6 rats per group. The rats in the control group were administrated with 0.1% ascorbic acid-3 mg % potassium sodium tartrate-physiological saline; the rats in the model group were administrated with 0.1% ascorbic acid-6 mg % norepinephrine bitartrate-physiological saline; the rats in the three dosing groups were administrated with the pentadecapeptide, the heptacosapeptide, and the pantapentacontapeptide at 15 μg/kg respectively, while administration of norepinephrine. The dosing volume for each group was 33 ml/kg, and the administration was performed consecutively by ip, bid, for 20 days. At that time, the heart and left ventricle were weighed.

[3] = test system: cultured cardiocytes of the rats (hypertrophy induced by NE); test: protein content in rat cardiocyte hypertrophy induced by norepinephrine (Lowry method); format: cell-based, Wistar rats; conditions: for Protein content: 24 h, n = 6, x ± s; for effect on protein content in the hypertrophic cardiocyte induced by NE: polypeptide at 10 nmol/L
From the text: 1. Wistar rats 1-3 day postpartum (purchased from Center for Experimental Animal, Third Military Medical University) was used, sacrificed by cervical dislocation, and fixed on a dissecting table. The ventral skin of the corpus was disinfected with 2% iodine tincture and then 75% ethanol. The heart was removed, cutted into pieces of about 1-3 mm^3, digested repeatedly with a digestion solution containing 0.08% trypase, 0.02% EDTA, and 0.05% collogen. The cells were collected in DMEM containing 10% fetal bovine serum and cultured in an incubator at 37° C., 5% CO2.
2. The cardiocytes cultured for 48 h were subjected to replacement of the DMEM with a serum-free DMEM culture media and further cultured for 24 h before addition of a drug according to the following groups: • Normal control group; 10 μl of PBS was added. • Norepinephrine group; norepinephrine (NE, Serva Corporation, USA) was added at 1 μmol/L. • Polypeptide-dosed group: NE was added, while the corresponding polypeptide drug was added at 10 nmol/L.
3. After addition of the drug, the cells were further cultured for 24 h and then the culture media was discarded. The culture was washed with PBS, followed by adding 0.5 ml of 5% trichloracetic acid per well, and left at 4° C. for 1 h. The precipitate was dissolved in 1 ml of 0.1 mol/L NaOH. The protein content was determined by Lowry method.

[4] = test system: hypertrophic cardiocyte induced by angiotensin II; test: protein content in rat cardiocyte hypertrophy induced by angiotensin II (Lowry method); format: cell-based; conditions: for Protein content: 24 h, n = 6, x ± s
Protocol: 1. The cardiocytes were cultured for 48 h in the same way as described above, then subjected to replacement of the DMEM with a serum-free DMEM culture media, and further cultured for 24 h before addition of a drug according to the following groups: normal control group: 10 μl of PBS was added; Ang II group; Ang II was added at 1 μmol/L; serial polypeptide-dosed group: Ang II was added, while each of the dodecapeptide, pentadecapeptide, heptacosapeptide, pantapentacontapeptide was added at 10 nmol/L.
2. After addition of the drug, the cells were further cultured for 24 h and then the culture media was discarded. The culture was washed with PBS, followed by adding 0.5 ml of 5% trichloracetic acid per well, and left at 4° C. for 1 h. The precipitate was dissolved in 1 ml of 0.1 mol/L NaOH. The protein content was determined by Lowry method.

[5] = polypeptide 10 nmol/L together with NE 1 μmol/L

Q: Which “HI (heart index)” value [1] does the source give for `NC[C@H](O)c1ccc(O)c(O)c1` [NE, norepinephrine, reference compound] here?
A: 4.82 ± 0.44 mg/g

Q: And the “HW (heart weight)” value [1]?
A: 112.1 ± 12.1 mg

Q: What about the “LVI (left ventricular index or myocardial hypertrophy index)” value [1] of the same molecule?
A: 3.69 ± 0.36 mg/g

Q: And the “LVW (left ventricular weight)” value [1]?
A: 85.6 ± 9.16 mg

Q: And the “HI (heart index)” value [2]?
A: 3.674 ± 0.348 g/kg

Q: What about the “HW (heart weight)” value [2] of the same molecule?
A: 0.690 ± 0.078 g

Q: And the “LVI (left ventricular index or myocardial hypertrophy index)” value [2]?
A: 2.954 ± 0.225 g/kg

Q: And the “LVW (left ventricular weight)” value [2]?
A: 0.555 ± 0.055 g

Q: What about the Protein content ([3]; NE group: NE 1000 nmol/L alone) of the same molecule?
A: 121.0 ± 13.2 μg/10^5 cells

Q: How did the Protein content [3, 5] turn out when “Dicosapeptide: SEQ ID NO: 7 (icosapeptide), obtained by deleting amino acid residues 1 to 35 at the N-terminal of SEQ ID NO: 1 (VFAAVKDTILQLNLKEYNLV; listed as Homo sapiens)” was run?
A: 103.4 ± 11.4 μg/10^5 cells

Q: And the “effect on protein content in the hypertrophic cardiocyte induced by NE” value [3]?
A: significantly decrease

Q: What does the source list for “Dodecapeptide: SEQ ID NO: 10, obtained by deleting amino acid residues 1 to 43 at the N-terminal of SEQ ID NO: 1 (ILQLNLKEYNLV; listed as Homo sapiens)”?
A: effect on protein content in the cardiocyte in comparison with Ang II ([4]; polypeptide 10 nmol/L + Ang II): no manifest effect; Protein content ([4]; polypeptide 10 nmol/L together with Ang II 1 μmol/L): 144.0 ± 11.7 μg/10^5 cells; Protein content [3, 5]: 113.3 ± 11.6 μg/10^5 cells; effect on protein content in the hypertrophic cardiocyte induced by NE [3]: no manifest effect

Q: Which results are given for “Heptadecapeptide: SEQ ID NO: 8, obtained by deleting amino acid residues 1 to 38 at the N-terminal of SEQ ID NO: 1 (AVKDTILQLNLKEYNLV; listed as Homo sapiens)”?
A: Protein content [3, 5]: 96.4 ± 10.5 μg/10^5 cells; effect on protein content in the hypertrophic cardiocyte induced by NE [3]: significantly decrease

Q: “angiotensin II (DRVYIHPF; Angiotensin-2; UniProt P01019 25-32, looked up) [Ang II, inducer of cardiocyte hypertrophy, reference compound]” was tested. Which “protein content in the cardiocyte” value ([4]; Ang II added alone, vs 113.9±7.48 normal control, p<0.01) did it give?
A: 143.2 ± 5.49 µg

Q: And the Protein content ([4]; Ang II group: Ang II 1000 nmol/L alone)?
A: 143.2 ± 5.49 μg/10^5 cells
